Assay [1] deals with D3 ES cells. Put plainly: Media formulation evaluation assay: ES cell colony morphology, alkaline phosphatase staining and plating efficiency. The following applies: for general plating efficiency and number of undifferentiated ES colonies with or without the component: component added to serum-free formulation (15% in DMEM): 15 μg/L ferric citrate, 0.3 μg/L glycl-histidyl-lysine, 300 μg/L ethanolamine. Format: cell-based, mouse. As to the method: ES D3 ES cells were used (Doetschman, T. C. et al., J. Embryol. Exp. Morph. 87:27-45 (1985)). Unless otherwise specified, D3 cells at passage 15 were used. Trypsin-EDTA (0.25%, 1 mM) was used to remove cells from plates after rinsing the cell layer with phosphate buffered saline (PBS). Cells were cultured in a humidified 37° C., 10% CO2 incubator.
The protocol for a media formulation evaluation assay was as follows. The source of ES cells for the experiments was a sub-confluent dish of ES cells maintained on a feeder layer in ES cell medium with LIF. Feeder layers for experimental conditions were established in 6 well plates (NUNC) by seeding 3-5×10^4 feeder cell/cm^2 and allowing the cells to attach. ES cells were trypsinized to form a cell suspension. Trypsin activity was quenched with serum-supplemented medium, and cells were pelleted by centrifugation at 500× g. The medium was removed and the ES cells were resuspended in DMEM containing 2 mM L-glutamine, 50 U/mL penicillin, 50 ug/mL streptomycin, 100 uM NEAA, and 100 uM 2-mercaptoethanol (final concentrations).
ES cells were then mixed with respective test media (described infra) at a concentration of […]. Feeder cell media was then removed from the feeder plates, and the feeder layers were washed once with 2 mL of DMEM (that was not supplemented with serum or any other additives). 2.5 mL of test medium and ES cells (225/well) were added to each well of feeder cells. Test conditions were assayed in triplicate (3 wells/test condition). The cells were incubated for 7 days while observations were made regarding ES cell growth parameters. Incubation conditions were 37° C., 10% CO2 in air, and humidified atmosphere.
At the end of the 7 day culture period, observations were made and then ES cells were harvested, fixed and assayed for the presence of alkaline phosphatase by using a histochemical assay (Sigma diagnostic kit 86-R, Sigma, St. Louis, Mo.). Cells were fixed and assayed according to the manufacturer's directions. In this assay, cells which express alkaline phosphatase stain dark pink or red. ES cell colonies were rated in terms of morphology and strength of alkaline phosphatase staining according to the following parameters. Class I colonies are round, stain dark pink, and have the desired, undifferentiated colony morphology characterized by a well-defined colony border. Class II colonies are those that have begun to differentiate, are stained at least 60% pink, and have a more flattened appearance, with a poorly defined border. […] Plating efficiency was determined by dividing the total number of colonies obtained by the input number of ES cells (225/well).

For assay [2], the system named is feeder cells. The experiment in a line: Feeder layer morphology in ES cell cultures. In kind it is cell-based. The following applies: AAP 50 mg/L, independent of LIF. An excerpt: One aspect of the supplement that was sub-optimal related to the morphology of the feeder layer in ES cell cultures maintained in the same culture vessel for more than three days. Generally, ES cells are passaged every two to three days. Typically, during selection of antibiotic-resistant ES cells, cultures are maintained without passaging for ten or more days. […] The detached cells were seen floating in the growth medium.
In order to improve the formulation, the addition of L-ascorbic acid-2-phosphate to the formulation was evaluated. In an evaluation assay (as in Example 1), the medium was supplemented with the serum-free supplement (to a fmal concentration of 15%), either with or without L-ascorbic acid-2-phosphate (50 mg/L final concentration), and 10 ng/mL LIF (final concentration).
The numbers within parentheses indicate what percentage of total ES cell colonies that the colonies with the indicated degree of differentiation represented. In Table 4, “good” feeder cell morphology reflects a more fibroblast-like character and smooth borders, rather than a spindly, ragged-looking character.

As for glycl-histidyl-lysine, the “general plating efficiency and number of undifferentiated ES colonies with or without the component” value in assay [1] is “no different”.

As to `O=C1O[C@H]([C@@H](O)CO)C(O)=C1OP(=O)(O)O` [L-ascorbic acid-2-phosphate], the “appearance of the feeder layer” value in assay [2] was “improved”. In assay [1] (factor alone), the “effect on plating efficiency” value is given as “little effect”. Besides, in assay [1] (in the absence of LIF), the colony size entry is recorded as “much improved”, the “percent of class I colonies” value is on record as “increased” and the “percent of class III colonies” value is listed as “decreased”. In assay [1] (with LIF in the culture media), the “average colony size (an indication of growth rate)” value is “increase” and the “effect on the morphology class of colonies obtained” value is “virtually no effect”.

With ferric citrate, in assay [1], the “general plating efficiency and number of undifferentiated ES colonies with or without the component” value is recorded as “no different”.

Turning to `NCCO` [ethanolamine], in assay [1], the “general plating efficiency and number of undifferentiated ES colonies with or without the component” value is given as “no different”.

The values are drawn from patent US20020076747A1, “Method for expanding embryonic stem cells in serum-free culture” (priority 1997, published 2002).
